Assay results taken from US7427615B2, “3-substituted-4-pyrimidone derivatives” (Mitsubishi Pharma Corporation, priority 2001, dated 2008).

Target: T1, bovine cerebral TPK1 (Bos taurus, UniProt A0A3Q1MT31)
T1 construct: from tissue; host or cells: bovine brain (cerebrum)
Assay: Inhibitory activity against P-GS1 phosphorylation by bovine cerebral TPK1
Type: biochemical
Conditions: 41.7 μM [γ-32P]ATP, 25° C., 2 hours, pH 6.5
Method: Test Example: Inhibitory activity of the medicament of the present invention against P-GS1 phosphorylation by bovine cerebral TPK1
A mixture containing 100 mM MES-sodium hydroxide (pH 6.5), 1 mM magnesium acetate, 0.5 mM EGTA, 5 mM β-mercaptoethanol, 0.02% Tween 20, 10% glycerol, 12 μg/ml P-GS1, 41.7 μM [Υ-^32P] ATP (68 kBq/ml), bovine cerebral TPK1 and a compound shown in Table (a final mixture contained 1.7% DMSO deriving from a solution of a test compound prepared in the presence of 10% DMSO) was used as a reaction system. The phosphorylation was started by adding ATP, and the reaction was conducted at 25° C. for 2 hours, and then stopped by adding 21% perchloric acid on ice cooling. The reaction mixture was centrifuged at 12,000 rpm for 5 minutes and adsorbed on P81 paper (Whatmann), and then the paper was washed four times with 75 mM phosphoric acid, three times with water and once with acetone. The paper was dried, and the residual radioactivity was measured using a liquid scintillation counter.

T1 sequence (A0A3Q1MT31 1-419): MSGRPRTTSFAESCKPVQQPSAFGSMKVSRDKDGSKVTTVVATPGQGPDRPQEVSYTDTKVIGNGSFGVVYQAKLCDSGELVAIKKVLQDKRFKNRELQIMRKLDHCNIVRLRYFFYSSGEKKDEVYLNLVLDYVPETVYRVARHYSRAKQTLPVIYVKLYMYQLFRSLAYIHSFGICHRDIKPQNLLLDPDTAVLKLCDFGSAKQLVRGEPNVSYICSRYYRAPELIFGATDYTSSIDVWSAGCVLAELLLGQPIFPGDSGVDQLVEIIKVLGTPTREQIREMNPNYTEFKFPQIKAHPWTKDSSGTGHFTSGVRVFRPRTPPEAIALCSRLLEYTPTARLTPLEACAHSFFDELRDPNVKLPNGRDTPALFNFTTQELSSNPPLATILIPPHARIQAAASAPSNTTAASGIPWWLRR

| IC50 | Compound |
| --- | --- |
| 40 nM | Cn1c(N2CCOC(c3cccc(N4CCCC4)c3)C2)nc(-c2ccncc2)cc1=O (single isomer, unassigned) [B288] |
| 33 nM | Cn1c(N2CCOC(c3cccc(N4CCCC4)c3)C2)nc(-c2ccncc2)cc1=O (single isomer, unassigned) [B289] |
| 34 nM | Cn1c(N2CCOC(C(=O)c3ccccc3)C2)nc(-c2ccncc2)cc1=O (single isomer, unassigned) [C389] |
| 1 nM | Cn1c(N2CCOC(C(=O)c3ccccc3)C2)nc(-c2ccncc2)cc1=O (single isomer, unassigned) [C390] |
| 8.9 nM | Cn1c(NCC(=O)c2ccccc2)nc(-c2ccncc2)cc1=O [A001, 3-methyl-2-(2-oxo-2-phenylethylamino)-6-pyridin-4-yl-3H-pyrimidin-4-one] |
| 27 nM | Cn1c(NCC(=O)c2ccccc2F)nc(-c2ccncc2)cc1=O [A002] |
| 13 nM | Cn1c(NCC(=O)c2cccc(Cl)c2)nc(-c2ccncc2)cc1=O [A006] |
| 6 nM | Cn1c(N2CCOC(CCc3ccccc3)C2)nc(-c2ccncc2)cc1=O (centres unmarked) [B010] |
| 4.8 nM | Cn1c(N2CCO[C@@H](c3ccccc3F)C2)nc(-c2ccncc2)cc1=O [B037] |
| 8.3 nM | Cn1c(N2CCO[C@@H](c3ccccc3Cl)C2)nc(-c2ccncc2)cc1=O [B046] |
| 1.9 nM | Cn1c(N2CCOC(c3cccc(Br)c3)C2)nc(-c2ccncc2)cc1=O (centres unmarked) [B051] |
| 4 nM | Cn1c(N2CCOC(c3ccccc3Br)C2)nc(-c2ccncc2)cc1=O (centres unmarked) [B054] |
| 6 nM | Cc1ccccc1C1CN(c2nc(-c3ccncc3)cc(=O)n2C)CCO1 (centres unmarked) [B063] |
| 3.3 nM | COc1ccc([C@H]2CN(c3nc(-c4ccncc4)cc(=O)n3C)CCO2)cc1 [B079, (S)-2-[2-(4-Methoxyphenyl)morpholin-4-yl]-3-methyl-6-pyridin-4-yl-3H-pyrimidin-4-one] |
| 1.1 nM | COc1ccccc1C1CN(c2nc(-c3ccncc3)cc(=O)n2C)CCO1 (centres unmarked) [B084] |
| 1.4 nM | COc1ccccc1[C@H]1CN(c2nc(-c3ccncc3)cc(=O)n2C)CCO1 [B085] |
| 5 nM | CCOc1ccccc1C1CN(c2nc(-c3ccncc3)cc(=O)n2C)CCO1 (centres unmarked) [B087] |
| 1.2 nM | COc1cc(F)ccc1C1CN(c2nc(-c3ccncc3)cc(=O)n2C)CCO1 (centres unmarked) [B091] |
| 2.8 nM | Cn1c(N2CCOC(c3cc(F)c(F)cc3Cl)C2)nc(-c2ccncc2)cc1=O (centres unmarked) [B097] |

| IC50 | Compound |
| --- | --- |
| 4.7 nM | Cn1c(N2CCOC(c3ccc(F)cc3Br)C2)nc(-c2ccncc2)cc1=O (centres unmarked) [B100] |
| 0.36 nM | COc1cccc(OC)c1[C@H]1CN(c2nc(-c3ccncc3)cc(=O)n2C)CCO1 [B103] |
| 1.4 nM | Cn1c(N2CCO[C@@H](c3c(Cl)cccc3Cl)C2)nc(-c2ccncc2)cc1=O [B106] |
| 50 nM | Cn1c(N2CCO[C@H](c3c(Cl)cccc3Cl)C2)nc(-c2ccncc2)cc1=O [B107] |
| 8.2 nM | Cn1c(N2CCO[C@@H](c3c(F)cccc3F)C2)nc(-c2ccncc2)cc1=O [B110] |
| 63 nM | CC(C)Oc1ccc(C2CN(c3nc(-c4ccncc4)cc(=O)n3C)CCO2)cc1 (centres unmarked) [B122] |
| 30 nM | Cn1c(N2CCOC(c3ccc(OCC4CC4)cc3)C2)nc(-c2ccncc2)cc1=O (centres unmarked) [B128] |
| 52.9 nM | Cn1c(N2CCOC(c3cccc(S(C)(=O)=O)c3)C2)nc(-c2ccncc2)cc1=O (centres unmarked) [B130] |
| 8 nM | Cn1c(N2CCOC(c3ccc(N4CCCC4)cc3)C2)nc(-c2ccncc2)cc1=O (centres unmarked) [B140] |
| 15 nM | Cn1c(N2CCOC(c3ccc(F)cc3Cl)C2)nc(-c2ccncc2)cc1=O (centres unmarked) [B253] |
| 1.1 nM | COc1ccc(-c2cccnc2)cc1C1CN(c2nc(-c3ccncc3)cc(=O)n2C)CCO1 (centres unmarked) [B256] |
| 67 nM | Cn1c(N2CCOC(c3ccc(F)c(F)c3)C2)nc(-c2ccncc2)cc1=O (centres unmarked) [B257] |
| 1.3 nM | COc1cc(OC(C)C)ccc1C1CN(c2nc(-c3ccncc3)cc(=O)n2C)CCO1 (centres unmarked) [B261] |
| 1.2 nM | CCn1c(N2CCOC(c3c(OC)cccc3OC)C2)nc(-c2ccncc2)cc1=O (centres unmarked) [B263] |
| 8.9 nM | COc1cc(F)ccc1[C@@H]1CN(c2nc(-c3ccncc3)cc(=O)n2C)CCO1 [B285] |
| 0.57 nM | COc1ccc(-c2cccc(CN3CCCC3)c2)cc1C1CN(c2nc(-c3ccncc3)cc(=O)n2C)CCO1 (centres unmarked) [B287] |
| 2 nM | COc1cc(-c2ccccc2F)ccc1C1CN(c2nc(-c3ccncc3)cc(=O)n2C)CCO1 (centres unmarked) [B290] |
| 2.1 nM | Cn1c(N2CCCC(C(=O)c3ccccc3)C2)nc(-c2ccncc2)cc1=O (centres unmarked) [C001, 2-(3-Benzoylpiperidin-1-yl)-3-methyl-6-pyridin-4-yl-3H-pyrimidin-4-one] |
| 72 nM | Cn1c(N2CCCC(C(=O)Nc3ccccc3)C2)nc(-c2ccncc2)cc1=O (centres unmarked) [C067, 1-(1-Methyl-6-oxo-4-pyridin-4-yl-1,6-dihydro-pyrimidine-2-yl)-piperidine-3-carboxanilide] |

| IC50 | Compound |
| --- | --- |
| 3.5 nM | Cn1c(N2CCOC(C(=O)c3ccccc3)C2)nc(-c2ccncc2)cc1=O (centres unmarked) [C101, 2-(2-benzoylmorpholin-4-yl)-3-methyl-6-pyridin-4-yl-3H-pyrimidin-4-one] |
| 9 nM | Cn1c(N2CCC(C(=O)c3ccccc3)CC2)nc(-c2ccncc2)cc1=O [D001, 2-(4-benzoylpiperidin-1-yl)-3-methyl-6-pyridin-4-yl-3H-pyrimidin-4-one] |
| 23 nM | Cn1c(N2CCC(C(=O)c3ccccc3F)CC2)nc(-c2ccncc2)cc1=O [D002] |
| 15 nM | Cn1c(N2CCC(C(=O)c3ccc(F)cc3)CC2)nc(-c2ccncc2)cc1=O [D004] |
| 18 nM | COc1ccc(C(=O)C2CCN(c3nc(-c4ccncc4)cc(=O)n3C)CC2)cc1 [D007] |
| 6 nM | Cn1c(N2CCC(C(=O)c3ccc(Cl)cc3)CC2)nc(-c2ccncc2)cc1=O [D009, 2-[4-(4-Chlorobenzoyl)piperidin-1-yl]-3-methyl-6-pyridin-4-yl-3H-pyrimidin-4-one] |
| 11 nM | COc1cccc(C(=O)C2CCN(c3nc(-c4ccncc4)cc(=O)n3C)CC2)c1OC [D011] |
| 19 nM | Cn1c(N2CCC(C(=O)c3ccc(F)cc3F)CC2)nc(-c2ccncc2)cc1=O [D012] |
| 19 nM | Cn1c(N2CCC(C(=O)c3ccc(F)c(F)c3)CC2)nc(-c2ccncc2)cc1=O [D013] |
| 20 nM | Cn1c(N2CCC(C(=O)c3cccs3)CC2)nc(-c2ccncc2)cc1=O [D014] |
| 10 nM | Cn1c(N2CCC(C(=O)n3ccc4ccccc43)CC2)nc(-c2ccncc2)cc1=O [D017] |
| 4.3 nM | Cn1c(N2CCC(C(=O)N3CCCc4ccccc43)CC2)nc(-c2ccncc2)cc1=O [D018] |
| 8.1 nM | Cn1c(N2CCC(C(=O)N3CCc4ccccc43)CC2)nc(-c2ccncc2)cc1=O [D019] |
| 11 nM | Cn1c(N2CCC(C(=O)c3ccc(Cl)s3)CC2)nc(-c2ccncc2)cc1=O [D021] |
| 7.8 nM | Cn1c(N2CCC(C(=O)c3ccc(-c4ccccc4)cc3)CC2)nc(-c2ccncc2)cc1=O [D022] |
| 13 nM | Cn1c(N2CCC(C(=O)c3ccccc3-c3ccccc3)CC2)nc(-c2ccncc2)cc1=O [D023] |
| 19 nM | Cn1c(N2CCC(C(=O)c3cccc4ccccc34)CC2)nc(-c2ccncc2)cc1=O [D024] |
| 16 nM | COc1cc(F)ccc1C(=O)C1CCN(c2nc(-c3ccncc3)cc(=O)n2C)CC1 [D025] |
